Paper PMC12598616, “Design and optimization of caspase-1-responsive fluorescent probes for pyroptosis imaging and anti-pyroptosis drug screening” (Chemical Science, 2025)

Test system: caspase-8
Experiment: Selectivity of probes: caspase-8
Assay type: biochemical, human
Details: caspase-8 1 μg/mL, 37 °C, 2 h, λex 510 nm, λem 585 nm
Description: The resin used for SPPS was purchased from GL Biochem (Shanghai, China). Lipopolysaccharide (LPS, L2630), Nigericin and ATP (11140965001) were purchased from Merck (Shanghai, China) and Invitrogen (Shanghai, China), respectively. Cell culture plates were sourced from Wuxi NEST Biotechnology. Recombinant human caspase-1, caspase-3, caspase-4, and caspase-8 were obtained from Abcam and MCE (Shanghai, China). Anti-cleaved caspase-1 antibody, anti-GAPDH antibody, and goat anti-Rabbit/anti-mouse lgG/HRP were purchased from CST (USA) and Beyotime […]
(Shanghai, China). […]
Medical College (ethical approval number ZJCLA-IACUC-20011003).
(also on this page, place not known: Wang,*f, Wang*abg Supplementary Information (SI) for Chemical Science. This journal is © The Royal Society of Chemistry 2025)
(1 picture or pasted object on this page, not shown here) […]
mixture was stirred for 3 h. […]
To investigate the sensitivity of the probes for caspase-1, varying concentration of caspase-1 (0, 0.2, 0.4, 0.6, 0.8, 1.0, 1.25, 1.5, 1.75, 2, 2.5, 3 U/mL) were incubated with FPy1 (5 μM), YPy1 (5 μM) and WPy1 (5 μM) respectively in caspase-1 assay buffer (50 mM HEPES, 50 mM NaCl, 0.1 % chaps, 5 % glycerol, 10 mM DTT, 10 mM EDTA) at 37 °C for 2 hours. Fluorescence spectra were recorded using Hitachi F-2700 spectrophotometer with an excitation at 510 nm (Photomultiplier voltage 700 V; Slit widths ex: 10 nm and em =5.0 nm). The fluorescence intensity of FPy1, YPy1 and WPy1 at 585 nm were plotted against the concentration of caspase-1, and a linear regression fitted from the corresponding concentration of caspase-1, and linear regression was applied to determine the slope k. The limit of detection (LoD) was calculated from 3σ/k, in which σ represents the standard deviation of 15 blank measurements. […]
The fluorescence intensity at 585 nm was measured on a Tecan Infinite M1000 Multi-function microplate reader (λex = 510 nm) at 37 °C every 2 minutes. The K M value of probes was determined from the Lineweaver-Burk plot. […]

Substance | fluorescence response to caspase-8
–FLTDG– [FPy1, RhoB donor, hNR quencher] | almost no response
–YVADG– [YPy1, caspase-1-responsive FRET probe with recognition peptide –YVADG–; RhoB donor, hNR quencher] | almost no response
